Reference: patent US20170360781A1, “PHARMACEUTICAL COMPOSITION COMPRISING BICYCLIC NITROGEN-CONTAINING AROMATIC HETEROCYCLIC AMIDE COMPOUND AS ACTIVE INGREDIENT” (Astellas Pharma Inc., priority 2014, published 2017)

How the values were obtained:
Format in all cases: in vivo
[1] = tested on: PIK3CA mutation-positive Colo201 cells derived from human colorectal cancer; experiment: Anti-tumor test 2 on mice tumor-bearing human colorectal cancer-derived Colo201 cells; conditions: Colo201, Balb/c nude mice, 8 mg/kg oral once a day for 21 days, final measuring day
Procedure: (§1) 4 to 5 week old male Balb/c nude mice (CHARLES RIVER LABORATORIES JAPAN, INC.) were injected and implanted, under the skin on the back, with 3×10^6 PIK3CA mutation-positive and BRAF mutation-positive RKO cells, or 3×10^6 PIK3CA mutation-positive Colo201 cells, both derived from human colorectal cancer suspended to a mixed solution of PBS and Matrigel (registered trademark) in 1:1. Dividing into groups was performed when the tumor volume reached 100 to 250 mm^3, and administering of the test compounds was started. The test was performed on each of the 5 mice in the solvent group and the compound administered group. By oral administration, 6% cyclodextrin aqueous solution for the solvent group, and 6% cyclodextrin aqueous solution in which the test compound was mixed by the dosage shown in Table 4 for the compound administered group were administered. The administration was performed once a day for 11 days (RKO) or 21 days (Colo201), and the body weight and the tumor diameter were measured twice a week. For calculation of the tumor volume, the formula below was used.
(§2) [Tumor volume(mm^3)]=[major axis of tumor(mm)]×[minor axis of tumor(mm)]^2×0.5
(§3) The inhibition rate of tumor growth was calculated from the average value of the tumor volume according to the formula below.
(§4) Inhibition rate of tumor growth(%)=([…]average of tumor volume growth in each group/average of tumor volume growth in solvent group)×100

[2] = tested on: DB cells derived from DLBCL; experiment: Anti-tumor test 1 on mice tumor-bearing DLBCL-derived DB cells; conditions: Balb/c nude mice, 8 mg/kg oral once a day for 16 days, final measuring day
Procedure: 4 to 5 week old male Balb/c nude mice (CHARLES RIVER LABORATORIES JAPAN, INC.) were injected and implanted, under the skin on the back, with 3×10^6 DB cells or WSU-DLCL-2 cells both derived from DLBCL suspended to a mixed solution of PBS and Matrigel (registered trademark) in 1:1. Dividing into groups was performed when the average tumor volume reached 400 to 500 mm^3, and administering of the test compounds was started. […] The administration was performed once a day for 16 days (DB) or 17 days (WSU-DLCL-2) by oral administration, and the body weight and the tumor diameter were measured twice a week. For calculation of the tumor volume, the formula below was used.
(§5) [Tumor volume(mm^3)]=[major axis of tumor(mm)]×[minor axis of tumor (mm)]^2×0.5
The rate of tumor regression was calculated from the average value of the tumor volume according to the formula below.
(§6) Rate of tumor regression(%)=(1−average tumor volume in each group on measuring day/average tumor volume in each group when dividing groups)×100

[3] = tested on: Human AML-derived KG-1 cells; experiment: Anti-tumor test 2 on tumor-bearing mice transplanted with human AML-derived KG-1 cell; conditions: KG-1, Balb/c nude mice, 8 mg/kg oral once a day for 21 days, final measuring day
Procedure: 4 to 5 weeks old male Balb/c nude mice (CHARLES RIVER LABORATORIES JAPAN, INC.) were injected and implanted, under the skin on the back, with 3×10^6 KG-1 cells suspended to a mixed solution of PBS and Matrigel (registered trademark) in 1:1. Dividing into groups was performed when tumor volume reached 100 to 200 mm^3, and administering of the test compounds was started. The test was performed on each of the 5 mice in the solvent group and the compound administered group. By oral administration, 6% cyclodextrin aqueous solution for the solvent group, and 6% cyclodextrin aqueous solution in which the test compound was mixed by the dosage shown in Table 6 for the compound administered group were administered. The administration was performed once a day for 21 days, and the body weight and the tumor diameter were measured twice a week. For calculation of the tumor volume, the formula below was used.
as §2
(§7) The inhibition rate of tumor growth and the rate of tumor regression were calculated from the average value of the tumor volume according to the formula below.
(§8) Inhibition rate of tumor growth(%)=(1−average of tumor volume growth in each group/average of tumor volume growth in solvent group)×100
as §6

[4] = tested on: PIK3CA mutation-positive and BRAF mutation-positive RKO cells derived from human colorectal cancer; experiment: Anti-tumor test 2 on mice tumor-bearing human colorectal cancer-derived RKO cells; conditions: Balb/c nude mice, 8 mg/kg oral once a day for 11 days, final measuring day
Procedure: as §1, §2, §3, §4

[5] = tested on: DB cells derived from DLBCL; experiment: Anti-tumor test 2 on mice tumor-bearing DLBCL-derived DB cells; conditions: Balb/c nude mice, 8 mg/kg oral once a day for 21 days, final measuring day
Procedure: 4 to 5 week old male Balb/c nude mice (CHARLES RIVER LABORATORIES JAPAN, INC.) were injected and implanted, under the skin on the back, with 3×10^6 DB cells or SU-DHL-4 cells both derived from DLBCL suspended to a mixed solution of PBS and Matrigel (registered trademark) in 1:1. Dividing into groups was performed when tumor volume reached 100 to 250 mm^3, and administering of the test compounds was started. The test was performed on each of the 5 mice in the solvent group and the compound administered group. By oral administration, 6% cyclodextrin aqueous solution for the solvent group, and 6% cyclodextrin aqueous solution in which the test compound was mixed by the dosage shown in Table 10 for the compound administered group were administered. The administration was performed once a day for 21 days by oral administration, and the body weight and the tumor diameter were measured twice a week. For calculation of the tumor volume, the formula below was used.
as §5, §7, §8, §6

[6] = tested on: Human AML-derived KG-1 cells; experiment: Anti-tumor test 1 on tumor-bearing mice transplanted with human AML-derived KG-1 cell; conditions: KG-1, Balb/c nude mice, final measuring day
Procedure: 4 week old male Balb/c nude mice (CHARLES RIVER LABORATORIES JAPAN, INC.) were injected and implanted, under the skin on the back, with 3×10^6 KG-1 cells, suspended to a mixed solution of PBS and Matrigel (registered trademark) in 1:1. After 16 days of implantation, administering of the test compounds was started. The test was performed on each of the 5 mice in the solvent group (6% cyclodextrin aqueous solution) and the test compound administered group (Test Compound Al was mixed to the solvent group by a dosage of 2, 4, or 8 mg/kg). The administration was performed once a day for 14 days by oral administration, and the body weight and the tumor diameter were measured twice a week. For calculation of the tumor volume, the formula below was used.
as §2, §7, §8, §6

## COc1ccc(CN2CCC(c3ccc4[nH]c(C(=O)N5CCN(Cc6ccc(C(F)(F)F)cc6)CC5)nc4c3)CC2)cn1 [Compound A1, (5-{1-[(6-methoxypyridin-3-yl)methyl]piperidin-4-yl}-1H-benzimidazol-2-yl){4-[4-(trifluoromethyl)benzyl]piperazin-1-yl}methanone]
[1]
  Inhibition rate Colo201: 53%
[2]
  Regression rate: 67%
[3]
  Inhibition rate of tumor growth: 99% inhibition
[4]
  Inhibition rate RKO: 48%
[5]
  Regression rate DB: 66% regression
[6]; 2 mg/kg oral once a day for 14 days
  Inhibition rate of tumor growth: 54% inhibition
[6]; 4 mg/kg oral once a day for 14 days
  Inhibition rate of tumor growth: 70% inhibition
[6]; 8 mg/kg oral once a day for 14 days
  Rate of tumor regression: 8% regression
